Test system: SETDB1, CSV, ATF7IP, IMPα1 in H1299 cells
Experiment: IFA microscopy of SETDB1, CSV, ATF7IP, IMPα1 in H1299
Assay type: cell-based, human
Parameters: dose or concentration left out as unconfirmed
Experimental: FIG. 18. […] Protein targets were localized by ASI digital pathology. […] Protein targets were localized by ASI digital pathology.
IFA microscopy and cell culture methods were performed as described in detail, above.

Substance: Mithramycin A [MTH]
- expression of mesenchymal metastatic marker CSV: induced an increase
- nuclear expression of SETDB1: no effect

From patent publication US20260242753A1, “NOVEL INHIBITORS OF HISTONE […] NUCLEAR LOCALISATION” (The Council of the Queensland Institute of Medical Research, priority 2022, published 2026)
